# Measurements taken from paper PMC3462190, “A Peptidic Unconjugated GRP78/BiP Ligand Modulates the Unfolded Protein Response and Induces Prostate Cancer Cell Death” (PLoS ONE, 2012).
# Where no end group is shown, it is not given here.
# B1: Bag-1 peptide: internal sequence of 68 amino acids of Bag-1 (Bag1-L 202–269), HA-tagged, expressed from pcDNA3 (peptide)
# chain: TPLSALGIQDGCRVMLIGKKNSPQEEVELKKLKHLEKSVEKIADQLEELNKELTGIQQGFLPKDLQAE
# modifications: also: HA tag, end not given here
# Tested on: 22Rv.1 cells
# Assay: Clonogenic assay
# Format: cell-based
# Details: neomycin selection, colonies quantified; mean ± SEM of at least three independent experiments
# Excerpt: Figure 5 An N-terminal unfolded fragment of the Bag-1 peptide is sufficient to reduce tumor cell growth. A. Schematic diagram of the Bag-1 peptide and its deletion mutants. The ubiquitin-like domain is represented in blue and the BAG domain in red. The numbers refer to the amino acid positions of the different domains. The amino acid residues are numbered following the numbering for Bag-1L. B. Prediction of the secondary structure of the Bag-1 peptide, showing an N-terminal β-hairpin from the ubiquitin-like domain (blue) and a C-terminal α-helix from the BAG domain (red). C. Normalized circular dichroism spectra of the Bag-1 peptides. 30 µM of the Bag-1 peptide were measured in 20 mM KHPO4 buffer, pH 6.8 (black line). Its α-helical content was estimated to be approximately 25% by deconvolution of the spectra (red line). 12 µM of the N-term peptide (green line) and 11 µM of C-term (blue line) were measured under the same conditions. D. ^1H^15N-HSQC NMR spectrum of ^15N-labeled Bag-1 peptide (202–269) in 20 mm KHPO4 buffer, pH 6.8, at 23°C. […] The Hδ and Hε side chain signals of asparagine and glutamine are connected by thin lines. E. The N-terminal region of the Bag-1 peptide is important for GRP78 binding. 400 µg of 22Rv.1 cell lysate were incubated with glutathione-agarose beads carrying 15 µg GST-N-term peptide (lane 2), GST-C-term peptide (lane 3), GST-ΔUbi peptide (lane 4), GST-Bag-1(202–269) peptide (lane 5) and GST (lane 6). The beads were washed and the bound proteins were separated by 10% SDS-PAGE and subjected to Western blotting using antibodies directed against GRP78 or GST. […] F. Clonogenic assay of the Bag-1 peptides expressed in 22Rv.1 cells. Cells transfected with the indicated constructs were selected in medium containing neomycin and the colonies formed were quantified. Shown are the mean value ±SEM of at least three independent experiments using three different plasmid preparations (*p<0.05). […] Six-week old athymic nude mice were injected subcutaneously on both flanks with 5×10^6 cells of each stable clone. Tumor size was measured once per week using a caliper and expressed as tumor volume in mm^3. Shown are the tumor volumes of clones transfected with the N-terminal peptide (G), the C-terminal peptide (H) and the ΔUbi peptide (I). Each point represents the mean volume and standard deviation of at least 5 to 10 tumors.
# Figure 6 Selectivity of action of the Bag-1 peptide. A Amino acid sequence of the 19mer peptide and its deletion mutants. B GST pull-down assay performed incubating 400 µg of 22Rv.1 cell lysate and 25 µg of GST-fused deletion mutants of the 19mer peptide. After the pull-down experiment, Western blots were carried out with anti-GRP78/BiP and GST antibodies. C. Fluorescence polarization (FP) assays with a 10 nM FITC-labeled 7-mer Bag-1 peptide and dilutions of the GST-fused substrate binding domain of GRP78 in 60 µl of Tris-GSH buffer (50 mM Tris, 10 mM reduced glutathione and 0.1% BSA, pH 8.0). Triplicate samples were measured after 5 h of incubation at room temperature with an Infinite F-200 reader (Tecan) with excitation at 490 nm and emission at 535 nm. Binding constants were determined from three independent experiments using non-linear regression in Sigma Plot 10.0. D. Competition assays with a complex of 10 nM of FITC-labeled Bag-1 7-mer peptide and 0.75 mg/ml GST-fused GRP78 substrate binding domain was measured against a dilution series from 100 µM to 0.1 nM of wild-type Bag-1 7-mer peptide (filled line) or triple mutant peptide (dotted line) in 40 µl of Tris-GSH buffer. FITC-peptide and the FITC-peptide-protein complex were used as controls. Fluorescence polarization was determined as described above and IC50 values were determined in Sigma Plot. […]
row,Molecule,22Rv.1 growth in clonogenic assay
1,19-mer: Bag-1L 202–220 (TPLSALGIQDGCRVMLIGK; not fully specified),inhibit 22Rv.1 cell growth
2,C-terminal peptide: 28 C-terminal fragment of the Bag-1 peptide (Bag-1L 241–269) (EKIADQLEELNKELTGIQQGFLPKDLQAE; not fully specified),ineffective
3,N-terminal peptide: N-terminal 40 residues of the Bag-1 peptide (Bag-1L 202–241) (TPLSALGIQDGCRVMLIGKKNSPQEEVELKKLKHLEKSVE; not fully specified),inhibited growth of the 22Rv.1 cells
4,ΔUbi peptide: Bag-1 peptide lacking the ubiquitin-like domain portion (Bag-1L 220–269) (KKNSPQEEVELKKLKHLEKSVEKIADQLEELNKELTGIQQGFLPKDLQAE; not fully specified),ineffective
5,B1,inhibited growth of the 22Rv.1 cells
